Data taken from ChEMBL document CHEMBL2202954, “The effect of PLC-γ2 inhibitors on the growth of human tumour cells” (2012).

Key:
Format in all cases: functional
[1] = system: MOLT-4; test: Cytotoxicity against human MOLT4 cells assessed as cellular growth at 10 uM by SRB assay
[2] = system: MCF7; test: Cytotoxicity against human MCF7 cells assessed as cellular growth at 10 uM by SRB assay
[3] = system: UACC-257; test: Cytotoxicity against human UACC257 cells assessed as cellular growth at 10 uM by SRB assay
[4] = system: NCI-H322M; test: Cytotoxicity against human NCI-H322M cells assessed as cellular growth at 10 uM by SRB assay
[5] = system: M14; test: Cytotoxicity against human M14 cells assessed as cellular growth at 10 uM by SRB assay
[6] = system: SK-MEL-28; test: Cytotoxicity against human SK-MEL-28 cells assessed as cellular growth at 10 uM by SRB assay
[7] = system: SNB-75; test: Cytotoxicity against human SNB75 cells assessed as cellular growth at 10 uM by SRB assay
[8] = system: OVCAR-8; test: Cytotoxicity against human OVCAR8 cells assessed as cellular growth at 10 uM by SRB assay
[9] = system: Malme-3M; test: Cytotoxicity against human MALME-3M cells assessed as cellular growth at 10 uM by SRB assay
[10] = system: SK-MEL-5; test: Cytotoxicity against human SK-MEL-5 cells assessed as cellular growth at 10 uM by SRB assay
[11] = system: HT-29; test: Cytotoxicity against human HT-29 cells assessed as cellular growth at 10 uM by SRB assay
[12] = system: OVCAR-3; test: Cytotoxicity against human OVCAR3 cells assessed as cellular growth at 10 uM by SRB assay
[13] = system: BT-549; test: Cytotoxicity against human BT549 cells assessed as cellular growth at 10 uM by SRB assay
[14] = system: DU-145; test: Cytotoxicity against human DU145 cells assessed as cellular growth at 10 uM by SRB assay
[15] = system: RPMI-8226; test: Cytotoxicity against human RPMI8226 cells assessed as cellular growth at 10 uM by SRB assay
[16] = system: Hs-578T; test: Cytotoxicity against human Hs578T cells assessed as cellular growth at 10 uM by SRB assay
[17] = system: EKVX; test: Cytotoxicity against human EKVX cells assessed as cellular growth at 10 uM by SRB assay
[18] = system: NCI-H23; test: Cytotoxicity against human NCI-H23 cells assessed as cellular growth at 10 uM by SRB assay
[19] = system: ACHN; test: Cytotoxicity against human ACHN cells assessed as cellular growth at 10 uM by SRB assay
[20] = system: UACC-62; test: Cytotoxicity against human UACC62 cells assessed as cellular growth at 10 uM by SRB assay

| SMILES | Activity [1] [%] | Activity [2] [%] | Activity [3] [%] | Activity [4] [%] | Activity [5] [%] | Activity [6] [%] | Activity [7] [%] | Activity [8] [%] | Activity [9] [%] | Activity [10] [%] | Activity [11] [%] | Activity [12] [%] | Activity [13] [%] | Activity [14] [%] | Activity [15] [%] | Activity [16] [%] | Activity [17] [%] | Activity [18] [%] | Activity [19] [%] | Activity [20] [%] |
| --- | --- | --- | --- | --- | --- | --- | --- | --- | --- | --- | --- | --- | --- | --- | --- | --- | --- | --- | --- | --- |
| COc1ccc2nc(NC(=O)c3ccc(F)cc3)sc2c1 | 87.45 | 70.13 | 97.45 | 75.75 | 106.56 | 110.86 | 109.5 | 94.61 | 92.36 | 89.97 | 90.2 | 101.58 | 104.05 | 105.68 | 87.06 | 114.71 | 79.56 | 85.96 | 88.79 | 88.71 |
| Cc1ccc(S(=O)(=O)NC2=NC(=O)/C(=C\c3ccccc3)S2)cc1 | 86.66 | 97.41 | 104.4 | 114.86 | 110.84 | 114.12 | 88.62 | 102.48 | 112.01 | 100.29 | 109.22 | 116.48 | 113.45 | 111.67 | 104.04 | 128.48 | 99.77 | 107.93 | 103.63 | 96.39 |
| Cc1ccc(C2=N/C(=C\c3ccccc3)C(=O)O2)cc1 | 91.17 | 103.73 | 101.52 | 114.1 | 108.05 | 105.81 | 90.22 | 102.69 | 105.62 | 105.32 | 107.8 | 105.55 | 103.91 | 106.2 | 102.87 | 96.01 | 90.26 | 101.26 | 104.91 | 101.68 |
| O=S(=O)(Oc1ccc(-c2cnc3ccccc3n2)cc1)c1ccccc1 | 75.6 | 94.53 | 100.15 | 107.81 | 106.54 | 110.13 | 108.13 | 100.22 | 92.27 | 92.11 | 78.71 | 112.06 | 96.82 | 107.72 | 87.36 | 145.79 | 93.17 | 96.29 | 103.61 | 78.48 |
| Cc1ccc2c(c1)N/C(=C/C(=O)c1ccc(Cl)cc1)C(=O)O2 | 86.91 | 87.54 | 97.03 | 114.58 | 108.88 | 116.13 | 86.32 | 101.66 | 99.95 | 102.04 | 105.84 | 119.21 | 109.64 | 112.1 | 64.3 | 113.45 | 106.62 | 98.65 | 103.68 | 93.82 |
| CC1(C)CC(=O)c2cc3c(N)c(C(=O)Nc4ccc(Cl)cc4)sc3nc2C1 | 104 | 102.6 | 91.35 | 113.55 | 107.38 | 118.07 | 113.88 | 110.67 | 119.36 | 96.03 | 96.43 | 111.21 | 124.84 | 103.07 | 102.77 | 108.83 | 93.17 | 104.98 | 116.88 | 105.25 |
| O=C(Nc1ccc2oc(=O)ccc2c1)c1ccc(-c2ccc(Cl)c(Cl)c2)o1 | 73.02 | 86.24 | 97.36 | 91.94 | 100.99 | 101.23 | 92.21 | 94.2 | 100.19 | 87.91 | 92.94 | 102.55 | 77.96 | 92.43 | 70.14 | 145.42 | 94.26 | 97.86 | 78.44 | 75.33 |
| O=C1N=C(c2ccccc2)S/C1=C\c1ccc2c(c1)OCO2 | 109.24 | 101.6 | 92.39 | 108.21 | 111.64 | 106.02 | 95.66 | 96.76 | 94.49 | 96.34 | 101.51 | 95.8 | 108.62 | 102.97 | 92.67 | 94.3 | 98.04 | 114.7 | 99.6 | 91.01 |
| Cc1c(OCC(=O)c2ccccc2)ccc2c1oc(=O)c1ccccc12 | 90.5 | 102.82 | 111.79 | 115.03 | 118.87 | 113.56 | 122.93 | 99.11 | 120.27 | 97.8 | 100.17 | 102.65 | 120.42 | 106.9 | 107.85 | 103.5 | 99.55 | 109.71 | 114.47 | 98.05 |
| Nc1c(C(=O)Nc2cccc(Cl)c2)sc2nc3c(cc12)C(=O)CCC3 | 57.06 | 16.68 | 68.88 | 71.82 | 26.93 | 51.4 | 25.91 | 75.34 | 49.7 | 27.21 | 23.87 | 10.31 | 66.38 | 11.61 | 51.81 | 4.53 | 58.16 | 38 | 54.19 | 43.7 |
| O=C(NCCc1ccc(Cl)cc1)c1[nH]c2ccccc2c1Cl | 77.08 | 78.35 | 100.48 | 106.64 | 98.43 | 109.77 | 89.76 | 96.34 | 107.52 | 95.47 | 100.35 | 100.99 | 111.29 | 101.11 | 96.69 | 94.53 | 91.27 | 92.75 | 99.57 | 81.86 |
| Cc1ccc(CNC(=O)c2[nH]c3ccccc3c2Cl)cc1 | 91.47 | 98.84 | 101.14 | 111.04 | 115.09 | 113.18 | 123.78 | 99.35 | 116.06 | 99.25 | 100.16 | 95.55 | 115.69 | 97.89 | 101.73 | 95.86 | 91.13 | 95.25 | 112.34 | 100.21 |
| O=C(Nc1ccc(S(=O)(=O)Nc2nccs2)cc1)c1cccs1 | 95.09 | 103.71 | 102.54 | 104.64 | 110.69 | 115.4 | 87.94 | 106.2 | 104.82 | 107.39 | 101.43 | 116.67 | 114.16 | 114.06 | 107.43 | 122.2 | 97.85 | 108.72 | 116.25 | 104.61 |
| O=c1/c(=C/c2ccc(Cl)cc2Cl)sc2nc(-c3ccccc3)nn12 | 88.5 | 103.07 | 112.2 | 127.05 | 103.59 | 117.34 | 116.38 | 110.37 | 136.07 | 106.75 | 115.55 | 116 | 122.09 | 102.1 | 112.43 | 98.17 | 111.1 | 101.62 | 107.07 | 89.1 |
| Nc1c(C(=O)Nc2ccccc2)sc2nc3c(cc12)C(=O)CCC3 | 43.43 | 19.61 | 52.83 | 67.12 | 1.11 | 58.69 | 12.41 | 39.92 | 76.23 | 25.74 | 4.34 | -19.35 | 65.66 | 0.62 | 30.21 | 37.53 | 84.59 | 39.48 | 49.71 | 44.06 |
| N#Cc1ccc(-n2nnc3ccccc32)cc1C#N | 93.32 | 82.05 | 89.4 | 111.4 | 106.26 | 104.11 | 120.55 | 99.01 | 96.58 | 97.62 | 108.03 | 101.15 | 106.48 | 93.52 | 100.67 | 105.04 | 79.18 | 94 | 102.68 | 94.5 |
